Like-named read-outs stand apart in the source and are kept apart here. Non-standard residues stand in square brackets, D forms with d. Residues, ends and D or L forms follow the SMILES beside them. *: point of attachment. Lauroyl = CCCCCCCCCCCC(=O)*; 12Ado = NCCCCCCCCCCCC(=O)O; Octanoyl = CCCCCCCC(=O)*
Key:
MCF-7 cell line = format: cell-based
TRAMP-C2 cell line = format: cell-based
Source text: Transgenic adenocarcinoma mouse prostate cells (TRAMP-C2);
(§1) As a routine cancer cell killing assay for assessment of antitumor activity, 2,3-bis(2-methoxy-4-nitro-5-sulfophenyl)-2H-tetrazolium-5-carboxanilide inner salt (XTT) reduction assay was used, utilizing a commercial kit such as, for example, Cell Proliferation XTT Kit, Cat. No. 20-300-1000, Biological Industries Ltd., Kibbutz Beit Haemek, Israel. XTT is a tetrazolium salt which is cleaved to formazan colored compounds by the mitochondrial dehydrogenase enzymes indicating proper mitochondrial activity in intact cells.
(§2) Thereafter, a series of increasing concentrations of the polymers were added. After another 24 hours of incubation, XTT reaction solution was added (50 μl of XTT per 100 μl of cell culture medium). The optical density of the cells was measured at 450 nm by ELISA plate reader after 2-4 hours XTT incubation. Cell viability was determined relative to a control having no polymer added thereto.
“Mouse prostate cancer TRAMP-C2” represents the lethal concentration in μM as measured against TRAMP-C2 cell line, measured as described hereinabove in the cell proliferation XTT assay (column 5 in Table 3);

N-417 cell line = test: XTT cell viability assay, N-417 cells; format: cell-based
Source text: Variant small cell lung cancer cells (N-417, SCLC);
as §1, §2
“Human breast cancer MCF-7” represents the lethal concentration in μM as measured against MCF-7 cell line, measured as described hereinabove in the cell proliferation XTT assay (column 6 in Table 3); “Human small-cell lung carcinoma N-417” represents the lethal concentration in μM as measured against N-417 cell line, measured as described hereinabove in the cell proliferation XTT assay (column 7 in Table 3);

[1] = XTT cell viability assay, non-cancerous cardiac fibroblasts (CF); format: cell-based, rat; conditions: rat
Source text: Primary non-cancerous rat cardiac fibroblasts (CF);
as §1, §2
“Rat primary cardiac fibroblast CF” represents the lethal concentration in μM as measured against CF cell line, measured as described hereinabove in the cell proliferation XTT assay (column 8 in Table 3);

in vitro = conditions: human
Experimental: The polymer's toxic potential was determined against human red blood cells (RBC) by measuring leakage of hemoglobin therefrom in phosphate buffer solution (PBS). Human blood samples were rinsed three times in PBS by centrifugation for 2 minutes at 200×g, and re-suspended in PBS at 5% hematocrit. A 50 μl-fractions of a suspension containing […] RBC were added to test tubes containing 200 μl of polymer solutions (2-fold serial dilutions in PBS), PBS alone (for base-line values), or distilled water (for 100% hemolysis). […] Controls for base-line hemolysis (blank) and 100% hemolysis consisted of RBC suspended in PBS and TritonX100 (0.2%), respectively.

[2] = Cancer LC50 Rat primary cardiac fibroblast CF
[3] = 24 hours incubation, XTT, read-out: Cancer LC50 Human breast cancer MCF-7
[4] = 24 hours incubation, XTT, read-out: Cancer LC50 Mouse prostate cancer TRAMP-C2
[5] = 24 hours incubation, XTT, read-out: Cancer LC50 Human small-cell lung carcinoma N-417
[6] = primary non-cancerous cardiac fibroblasts (CF), 24 hours incubation, XTT, non-cancerous cells, read-out: Cancer LC50 Rat primary cardiac fibroblast CF
[7] = LC50 against non-cancerous CF cells

HC50 at 3 h (in vitro; red blood cells) [µM]	SMILES	CC50 (MCF-7 cell line; [3]) [µM]	CC50 (TRAMP-C2 cell line; [4]) [µM]	CC50 (N-417 cell line; [5]) [µM]	CC50 at 24 h [1, 6] [µM]	further results
	NCCCCCCCCCCCC(=O)N[C@@H](CCCCN)C(=O)NCCCCCCCCCCCC(=O)N[C@@H](CCCCN)C(=O)N[C@@H](CCCCN)C(=O)NCCCCCCCCCCCC(=O)N[C@@H](CCCCN)C(N)=O [NC12(KNC12K)2NH2] (H-[12Ado]K[12Ado]KK[12Ado]K-NH2)					CC50 (MCF-7 cell line; human, 24 h): > 16 µM; CC50 (TRAMP-C2 cell line; mouse, 24 h): > 16 µM; CC50 (N-417 cell line; human, 24 h): > 16 µM; CC50 at 24 h [1, 2]: > 16 µM
	CCCCCCCC(=O)N[C@@H](CCCCN)C(=O)NCCCCCCCCCCCC(=O)N[C@@H](CCCCN)C(=O)N[C@@H](CCCCN)C(=O)NCCCCCCCCCCCC(=O)N[C@@H](CCCCN)C(N)=O [C8(KNC12K)2NH2] (Octanoyl-K[12Ado]KK[12Ado]K-NH2)	> 16	> 8	> 16	> 16	
10 ± 0.1	CCCCCCCCCCCC(=O)N[C@@H](CCCCN)C(=O)NCCCCCCCCCCCC(=O)N[C@@H](CCCCN)C(=O)N[C@@H](CCCCN)C(=O)NCCCCCCCCCCCC(=O)N[C@@H](CCCCN)C(=O)N[C@@H](CCCCN)C(=O)NCCCCCCCCCCCC(=O)N[C@@H](CCCCN)C(N)=O (Lauroyl-K[12Ado]KK[12Ado]KK[12Ado]K-NH2)	6 ± 1	10	< 16	> 16	CC50 (TRAMP-C2 cell line; dose-dependent plot, FIG. 6a, read-out: LC50 towards TRAMP-C2 cells): 11 µM; CC50 at 24 h ([1]; primary non-cancerous cardiac fibroblasts (CF), dose-dependent plots, FIGS. 4a-b, 6a, read-out: LC50 against non-cancerous CF cells): 38 µM
	NCCCC[C@@H]1NC(=O)CCCCCCCCCCCNC(=O)[C@H](CCCCN)NC(=O)CCCCCCCCCCCNC(=O)[C@H](CCCCN)NC(=O)CCCCCCCCCCCNC(=O)[C@H](CCCCN)NC(=O)[C@H](CCCCN)NC(=O)CCCCCCCCCCCNC(=O)[C@H](CCCCN)NC(=O)CCCCCCCCCCCNC1=O [Cyclic-K(NC12K)5] (cyclo(K[12Ado]K[12Ado]K[12Ado]K[12Ado]K[12Ado]K))					HC50 at 3 h (in vitro): 3.4 ± 0.3 µM
	NCCCC[C@@H]1NC(=O)CCCCCCCCCCCNC(=O)[C@H](CCCCN)NC(=O)[C@H](CCCCN)NC(=O)CCCCCCCCCCCNC(=O)[C@H](CCCCN)NC(=O)[C@H](CCCCN)NC(=O)CCCCCCCCCCCNC(=O)[C@H](CCCCN)NC1=O [Cyclic-(KNC12K)3] (cyclo(K[12Ado]KK[12Ado]KK[12Ado]K))					HC50 at 3 h (in vitro): > 100 µM
	NCCCCCCCCCCCC(=O)N[C@@H](CCCCN)C(=O)N[C@@H](CCCCN)C(=O)NCCCCCCCCCCCC(=O)N[C@@H](CCCCN)C(N)=O [NC12KKNC12KNH2] (HELM PEPTIDE1{[NCCCCCCCCCCCC(=O)[*:2]].K.K.[O=C(CCCCCCCCCCCN[*:1])[*:2]].K.[am]}$$$$V2.0)	> 16	> 16	> 16	> 16	
51 ± 6	CCCCCCCC(=O)N[C@@H](CCCCN)C(=O)NCCCCCCCCCCCC(=O)N[C@@H](CCCCN)C(=O)N[C@@H](CCCCN)C(=O)NCCCCCCCCCCCC(=O)N[C@@H](CCCCN)C(=O)N[C@@H](CCCCN)C(=O)NCCCCCCCCCCCC(=O)N[C@@H](CCCCN)C(N)=O [C8(KNC12K)3NH2] (Octanoyl-K[12Ado]KK[12Ado]KK[12Ado]K-NH2)	8.7 ± 0.5	15 ± 0.7	9 ± 1.4	37 ± 1	
> 100	NCCCC[C@@H]1NC(=O)CCCCCCCCCCCNC(=O)[C@H](CCCCN)NC(=O)[C@H](CCCCN)NC(=O)CCCCCCCCCCCNC(=O)[C@H](CCCCN)NC1=O [Cyclic-(KNC12K)2] (HELM PEPTIDE1{[O=C(CCCCCCCCCCCN[*:1])[*:2]].K.K.[O=C(CCCCCCCCCCCN[*:1])[*:2]].K.K}$PEPTIDE1,PEPTIDE1,1:R1-6:R2$$$V2.0)					
	CCCCCCCCCCCC(=O)N[C@@H](CCCCN)C(=O)N[C@@H](CCCCN)C(=O)NCCCCCCCCCCCC(=O)N[C@@H](CCCCN)C(N)=O [C12KKNC12KNH2] (HELM PEPTIDE1{[CCCCCCCCCCCC(=O)[*:2]].K.K.[O=C(CCCCCCCCCCCN[*:1])[*:2]].K.[am]}$$$$V2.0)					CC50 (MCF-7 cell line; human, 24 h): > 16 µM; CC50 (TRAMP-C2 cell line; mouse, 24 h): > 16 µM; CC50 (N-417 cell line; human, 24 h): > 50 µM; CC50 at 24 h [1, 2]: > 16 µM
	NCCCC[C@@H]1NC(=O)CCCCCCCCCCCNC(=O)[C@H](CCCCN)NC(=O)[C@H](CCCCN)NC(=O)CCCCCCCCCCCNC(=O)[C@H](CCCCN)NC(=O)[C@H](CCCCN)NC(=O)CCCCCCCCCCCNC1=O [Cyclic-NC12K(KNC12K)2] (cyclo([12Ado]KK[12Ado]KK[12Ado]K))					HC50 at 3 h (in vitro): > 100 µM
	NCCCCCCCCCCCC(=O)N[C@@H](CCCCN)C(=O)N[C@@H](CCCCN)C(=O)NCCCCCCCCCCCC(=O)N[C@@H](CCCCN)C(=O)N[C@@H](CCCCN)C(=O)NCCCCCCCCCCCC(=O)N[C@@H](CCCCN)C(N)=O [NC12K(KNC12K)2NH2] (H-[12Ado]KK[12Ado]KK[12Ado]K-NH2)	> 16	> 16	> 16	> 16	
> 100	NCCCC[C@@H]1NC(=O)CCCCCCCCCCCNC(=O)[C@H](CCCCN)NC(=O)[C@H](CCCCN)NC(=O)CCCCCCCCCCCNC1=O [Cyclic-NC12KKNC12K] (HELM PEPTIDE1{[O=C(CCCCCCCCCCCN[*:1])[*:2]].K.[O=C(CCCCCCCCCCCN[*:1])[*:2]].K.K}$PEPTIDE1,PEPTIDE1,1:R1-5:R2$$$V2.0)					
	NCCCC[C@H](NC(=O)CCCCCCCCCCCNC(=O)[C@H](CCCCN)NC(=O)[C@@H](N)CCCCN)C(N)=O [KKNC12KNH2] (HELM PEPTIDE1{K.K.[O=C(CCCCCCCCCCCN[*:1])[*:2]].K.[am]}$$$$V2.0)					CC50 (MCF-7 cell line; human, 24 h): > 16 µM; CC50 (TRAMP-C2 cell line; mouse, 24 h): > 16 µM; CC50 (N-417 cell line; human, 24 h): > 16 µM; CC50 at 24 h [1, 2]: > 16 µM
	CCCCCCCC(=O)N[C@@H](CCCCN)C(=O)N[C@@H](CCCCN)C(=O)NCCCCCCCCCCCC(=O)N[C@@H](CCCCN)C(N)=O [C8KKNC12KNH2] (HELM PEPTIDE1{[CCCCCCCC(=O)[*:2]].K.K.[O=C(CCCCCCCCCCCN[*:1])[*:2]].K.[am]}$$$$V2.0)					CC50 (MCF-7 cell line; human, 24 h): > 16 µM; CC50 (TRAMP-C2 cell line; mouse, 24 h): > 16 µM; CC50 (N-417 cell line; human, 24 h): > 16 µM; CC50 at 24 h [1, 2]: > 16 µM
	CCCCCCCC(=O)N[C@@H](CCCCN)C(=O)N[C@@H](CCCCN)C(=O)NCCCCCCCCCCCC(=O)N[C@@H](CCCCN)C(=O)N[C@@H](CCCCN)C(=O)NCCCCCCCCCCCC(=O)N[C@@H](CCCCN)C(N)=O [C8K(KNC12K)2NH2] (Octanoyl-KK[12Ado]KK[12Ado]K-NH2)	20 ± 1	> 16	> 16	> 50	
	CCCCCCCCCCCC(=O)N[C@@H](CCCCN)C(=O)N[C@@H](CCCCN)C(=O)NCCCCCCCCCCCC(=O)N[C@@H](CCCCN)C(=O)N[C@@H](CCCCN)C(=O)NCCCCCCCCCCCC(=O)N[C@@H](CCCCN)C(N)=O [C12K(KNC12K)2NH2] (Lauroyl-KK[12Ado]KK[12Ado]K-NH2)	12 ± 4	> 16	11 ± 1	38 ± 1	

SMILES	HC50 at 3 h (in vitro; red blood cells) [µM]	CC50 (MCF-7 cell line; [3]) [µM]	CC50 (TRAMP-C2 cell line; [4]) [µM]	CC50 (N-417 cell line; [5]) [µM]	CC50 at 24 h [1, 6] [µM]	further results
CCCCCCCC(=O)N[C@@H](CCCCN)C(=O)N[C@@H](CCCCN)C(=O)NCCCCCCCCCCCC(=O)N[C@@H](CCCCN)C(=O)N[C@@H](CCCCN)C(=O)NCCCCCCCCCCCC(=O)N[C@@H](CCCCN)C(=O)N[C@@H](CCCCN)C(=O)NCCCCCCCCCCCC(=O)N[C@@H](CCCCN)C(N)=O [C8K(KNC12K)3NH2] (Octanoyl-KK[12Ado]KK[12Ado]KK[12Ado]K-NH2)	> 100	5.7 ± 0.3	16 ± 2	10 ± 0.4	25 ± 8	CC50 (MCF-7 cell line; dose-dependent plots, FIGS. 4a-b, read-out: LC50 against MCF-7 cells): 5.5 µM; CC50 at 24 h [1, 7]: 25 µM
CCCCCCCCCCCC(=O)N[C@@H](CCCCN)C(=O)NCCCCCCCCCCCC(=O)N[C@@H](CCCCN)C(=O)N[C@@H](CCCCN)C(=O)NCCCCCCCCCCCC(=O)N[C@@H](CCCCN)C(N)=O [C12(KNC12K)2NH2] (Lauroyl-K[12Ado]KK[12Ado]K-NH2)	17 ± 6		> 16	10 ± 1	67 ± 10	CC50 (MCF-7 cell line; human, 24 h): 11 µM; CC50 at 24 h [1, 7]: 67 µM

From patent publication US20100173832A1, “ANTICANCEROUS POLYMERIC AGENTS” (TECHNION RESEARCH & DEVELOPMENT FOUNDATION LTD., priority 2007, published 2010)
